In brackets after ≈: the same amount, converted by molar mass.

What is called IC50 is the midpoint of a concentration-inhibition curve. In general, inhibition refers to the change of the read-out against control, counted positive when it falls.

The test system of one assay is HCT-116. Put plainly: Anticancer activity against human HCT-116 cells assessed as reduction in cell viability incubated for 96 hrs by MTT assay. It counts as functional, cell-based. Particulars: HCT-116, 96 h.
Take `O=c1[nH]c2c(c(=O)[nH]1)C(c1cccs1)c1[nH]c(=S)[nH]c(=S)c1O2` (stereo not given): the IC50 was 2.76 µM.

Take `Nc1nc(S)nc2c1Oc1[nH]c(=O)[nH]c(=O)c1C2c1cccs1` (stereo not given): the IC50 was 2.76 µM. As for `Cc1nc(O)c2c(n1)Oc1[nH]c(=O)[nH]c(=O)c1C2c1cccs1` (stereo not given), the IC50 amounted to 2.76 µM.

A further assay relates to Bacillus subtilis. Put plainly: Antibacterial activity against Bacillus subtilis assessed as diameter of inhibition zone. It counts as functional.
Settings: not given
Regarding `Cc1ccc(C2C(C#N)=C(N)Oc3[nH]c(=O)[nH]c(=O)c32)cc1` (stereo not given), the “diameter of the inhibition zone (DIZ)” value came out at 10 mm.

The next assay deals with Urease (Canavalia ensiformis, UniProt P07374). As to the kind of experiment: Inhibition of jack bean urease by phenol red method.
Urease, sequence (P07374 whole entry): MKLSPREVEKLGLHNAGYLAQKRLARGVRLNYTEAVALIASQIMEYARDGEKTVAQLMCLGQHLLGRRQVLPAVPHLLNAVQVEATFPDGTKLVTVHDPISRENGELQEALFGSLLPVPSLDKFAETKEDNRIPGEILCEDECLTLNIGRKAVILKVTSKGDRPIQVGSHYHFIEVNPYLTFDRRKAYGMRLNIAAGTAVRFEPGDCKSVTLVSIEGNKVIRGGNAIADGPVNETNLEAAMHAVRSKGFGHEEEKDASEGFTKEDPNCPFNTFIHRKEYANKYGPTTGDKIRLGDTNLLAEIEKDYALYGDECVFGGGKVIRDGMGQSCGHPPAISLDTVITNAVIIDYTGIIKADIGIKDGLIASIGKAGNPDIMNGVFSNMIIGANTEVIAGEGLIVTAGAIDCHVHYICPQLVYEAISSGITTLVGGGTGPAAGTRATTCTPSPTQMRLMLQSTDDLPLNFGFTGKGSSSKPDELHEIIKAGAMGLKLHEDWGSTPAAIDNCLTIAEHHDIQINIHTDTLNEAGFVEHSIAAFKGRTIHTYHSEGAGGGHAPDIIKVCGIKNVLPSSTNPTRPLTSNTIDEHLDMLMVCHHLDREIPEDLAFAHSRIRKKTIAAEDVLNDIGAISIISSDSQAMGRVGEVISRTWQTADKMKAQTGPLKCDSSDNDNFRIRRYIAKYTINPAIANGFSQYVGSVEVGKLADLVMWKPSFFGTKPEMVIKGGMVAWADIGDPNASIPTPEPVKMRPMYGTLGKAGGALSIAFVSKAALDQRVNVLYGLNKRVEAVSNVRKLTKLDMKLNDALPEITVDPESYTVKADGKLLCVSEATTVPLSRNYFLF
Settings: not given
Consider `N#CC1=C(N)Oc2[nH]c(=O)[nH]c(=O)c2C1c1ccc(Cl)cc1Cl` (stereo not given), for which the IC50 stood at 19.5 µM. `Cc1ccc(C2C(C#N)=C(N)Oc3[nH]c(=O)[nH]c(=O)c32)cc1` (stereo not given): the IC50 amounted to 71.9 µM.

In turn, `Cn1c2c(c(=O)n(C)c1=O)C(c1ccc(O)cc1)C(C#N)=C(N)O2` (stereo not given) showed an IC50 of 108 µM. `CN1C(=O)C2C(c3ccccc3)C(C#N)=C(N)OC2N(C)C1=O` (stereo not given) registered an IC50 of 98.8 µM.

Tested on in another assay: not listed separately
As to the kind of experiment: Antioxidant activity assessed as NO radical scavenging activity. It counts as functional.
Settings: not given
As to `COc1cc(C2C(C#N)=C(N)Oc3cc(O)ccc32)ccc1O` (stereo not given), the IC50 worked out at 50.32 µg/mL (≈ 162 µM).

With `Nc1ncnc2c1C(c1cc(Cl)ccc1O)c1ccc(O)cc1O2` (stereo not given), the IC50 stood at 50.32 µg/mL (≈ 147 µM). With `N#CC1=C(N)Oc2cc(O)ccc2C1c1ccco1` (stereo not given), the IC50 was 50.32 µg/mL (≈ 198 µM).

Regarding `Nc1ncnc2c1C(c1ccc(Br)cc1)c1ccc(O)cc1O2` (stereo not given), the half-maximal inhibitory concentration (IC50) came out at 50.32 µg/mL (≈ 136 µM).

A further assay relates to MCF7. As to the kind of experiment: cells. It counts as functional, cell-based. The settings on record: Homo sapiens, MCF7, 96 h.
For `O=c1[nH]c2c(c(=O)[nH]1)C(c1cccs1)c1[nH]c(=S)[nH]c(=S)c1O2` (stereo not given), the IC50 turned out to be 4.95 µM. Molecule `Nc1nc(S)nc2c1Oc1[nH]c(=O)[nH]c(=O)c1C2c1cccs1` (stereo not given) displayed an IC50 of 2.65 µM. As to `Cc1nc(O)c2c(n1)Oc1[nH]c(=O)[nH]c(=O)c1C2c1cccs1` (stereo not given), the IC50 came to 4.48 µM.

Tested on in the next assay: not listed separately
As to the kind of experiment: Antioxidant activity assessed as DPPH radical scavenging activity incubated for 20 mins by spectrophotometric analysis. It counts as functional. Further details: concentration or dose not given beside the values.
Settings: not given
Consider `O=c1[nH]c2c(c(=O)[nH]1)Oc1c(c(=O)oc3ccccc13)C2c1ccccc1Cl` (stereo not given), for which the Activity came out at 72.4%. As for `O=c1[nH]c2c(c(=O)[nH]1)Oc1c(c(=O)oc3ccccc13)C2c1ccc(Cl)cc1` (stereo not given), the Activity is 71.5%.

For `COc1ccc(C2c3[nH]c(=O)[nH]c(=O)c3Oc3c2c(=O)oc2ccccc32)cc1` (stereo not given), the Activity came to 59.1%. For the molecule `O=c1[nH]c2c(c(=O)[nH]1)Oc1c(c(=O)oc3ccccc13)C2c1cccc([N+](=O)[O-])c1` (stereo not given), the Activity was found to be 59.1%.

For `O=c1[nH]c2c(c(=O)[nH]1)Oc1c(c(=O)oc3ccccc13)C2c1ccc([N+](=O)[O-])cc1` (stereo not given), the Activity worked out at 59.1%.

Tested on in a further assay: not listed separately
As to the kind of experiment: Antioxidant activity assessed as hydroxyl radical scavenging activity incubated for 5 mins by spectrophotometric analysis. It counts as functional. Further details: concentration or dose not given beside the values.
Settings: not given
With `O=c1[nH]c2c(c(=O)[nH]1)Oc1c(c(=O)oc3ccccc13)C2c1ccccc1Cl` (stereo not given), the Activity stood at 67.2%. As to `O=c1[nH]c2c(c(=O)[nH]1)Oc1c(c(=O)oc3ccccc13)C2c1ccc(Cl)cc1` (stereo not given), the Activity turned out to be 68.3%. Consider `COc1ccc(C2c3[nH]c(=O)[nH]c(=O)c3Oc3c2c(=O)oc2ccccc32)cc1` (stereo not given), for which the Activity worked out at 54.3%. As to `O=c1[nH]c2c(c(=O)[nH]1)Oc1c(c(=O)oc3ccccc13)C2c1cccc([N+](=O)[O-])c1` (stereo not given), the Activity was 54.3%. Turning to `O=c1[nH]c2c(c(=O)[nH]1)Oc1c(c(=O)oc3ccccc13)C2c1ccc([N+](=O)[O-])cc1` (stereo not given), the Activity worked out at 54.3%.

Tested on in the next assay: not listed separately
Put plainly: Antioxidant activity assessed as H2O2 radical scavenging activity. It counts as functional.
Settings: not given
Turning to `COc1cc(C2C(C#N)=C(N)Oc3cc(O)ccc32)ccc1O` (stereo not given), the IC50 amounted to 53.54 µg/mL (≈ 173 µM). Same read-out and setting: in the case of `COc1ccc(C2C(C#N)=C(N)Oc3cc(O)ccc32)cc1` (stereo not given) it was 53.54 µg/mL (≈ 182 µM); in that of `CCOc1ccc(C2C(C#N)=C(N)Oc3cc(O)ccc32)cc1` (stereo not given), 53.54 µg/mL (≈ 174 µM).

The subject of a further assay is Salmonella typhimurium. As to the kind of experiment: Antibacterial activity against Salmonella typhimurium assessed as diameter of inhibition zone. It counts as functional, Salmonella enterica subsp. enterica serovar Typhimurium.
Settings: not given
On to `Cc1ccc(C2C(C#N)=C(N)Oc3[nH]c(=O)[nH]c(=O)c32)cc1` (stereo not given), for which the “diameter of the inhibition zone (DIZ)” value is given as 8 mm.

For a further assay, the species on record is Capra hircus. As to the kind of experiment: Inhibition of goat lens AR at 100 uM incubated for 10 mins in presence of NADPH by spectroscopic analysis.
Settings: not given
Turning to `O=c1[nH]c2c(c(=O)[nH]1)Oc1c(c(=O)oc3ccccc13)C2c1ccccc1Cl` (stereo not given), the inhibition turned out to be 46%. Same read-out and setting: next, `O=c1[nH]c2c(c(=O)[nH]1)Oc1c(c(=O)oc3ccccc13)C2c1ccc(Cl)cc1` (stereo not given): 47%; `COc1ccc(C2c3[nH]c(=O)[nH]c(=O)c3Oc3c2c(=O)oc2ccccc32)cc1` (stereo not given): 44%; `O=c1[nH]c2c(c(=O)[nH]1)Oc1c(c(=O)oc3ccccc13)C2c1cccc([N+](=O)[O-])c1` (stereo not given): 59%.

On to `O=c1c(O)c(-c2ccc(O)c(O)c2)oc2cc(O)cc(O)c12`, for which the inhibition came out at 92%.

Consider `O=c1[nH]c2c(c(=O)[nH]1)Oc1c(c(=O)oc3ccccc13)C2c1ccc([N+](=O)[O-])cc1` (stereo not given), for which the inhibition came to 39%.

Source of the values: ChEMBL document CHEMBL5241112, “Insights into the recent progress in the medicinal chemistry of pyranopyrimidine analogs” (RSC Med Chem, 2022).
